These results are taken from patent publication US5480905A, “Benzodioxane derivatives” (Chugai Seiyaku Kabushiki Kaisha, priority 1991, dated 1996).

Where two headings read alike, the source gives them in different places.

One assay addresses T1, serotonin 2 receptor (Rattus norvegicus, UniProt P14842).
T1 construct: the cortex and hippocampal tissue were extracted from the brain; from tissue; host or cells: brain cortex and hippocampus of 7-week-old male S.D. rats, washed membrane homogenate
As to the kind of experiment: Serotonin 2 receptor binding experiment (3H-ketancerine). Conditions: rat cortex and hippocampal tissue; 0.5 nM 3H-ketancerine; IC50 in M; read-out: -logIC50 5-HT2 (converted). The method, then: (§1) Affinity for intracerebral serotonin 1A and serotonin 2 receptor was checked in accordance with the method of Hall et al. (J. Neurochem., 44, 1685-1695, 1985) and the method of Leysen et al. (Mol. Pharmacol., 21, 301-314, 1982).
(§2) Stated more specifically, the cortex and hippocampal tissue were extracted from the brain of 7-wk old S.D. line male rats, mixed with 20 volumes of Tris-HCl buffer (50 mM, pH 7.7) and homogenized with a Teflon homogenizer. Thereafter, the homogenate was centrifuged at 39800×g for 20 min and the supernatant was discarded. Forty volumes of a buffer were added to the precipitate and the mixture was homogenized with a Polytron homogenizer, with the homogenate being centrifuged under the same condition as set forth above. The same procedure was repeated two more times and the final precipitate was homogenized with 40 volumes of a buffer; thereafter, the homogenate was stored at least overnight at -80° C. On the day when binding experiments were to be conducted, the homogenate was thawed at room temperature and incubated at 37° C. for 20 min to remove the endogenous serotonin.
(§3) Thereafter, centrifugation was conducted at 39800×g for 20 min and 40 volumes of a buffer were added to the precipitate, followed by homogenization. This procedure was repeated three times; to the final precipitate, a buffer was added in 65 volumes for the case of serotonin 1A receptor and in 80 volumes for the case of serotonin 2 receptor and the mixture was homogenized in preparation for the binding experiments that are described below. All procedures of experimentation except storage in a frozen state and thawing at room temperature were conducted at 4° C. or below.
A reaction solution containing 0.5 nM (final concentration) of ^3 H-ketancerine and 500 μl of brain homogenate in 1.0 ml (final volume) of a buffer was incubated at 30° C. for 30 min. Subsequent procedures were the same as in the serotonin 1A receptor binding experiment and IC50 (M) was determined accordingly. To determine the amount of specific binding, the amount of binding in the presence of excess unlabelled methysergide ([…]) was subtracted from the total amount of binding.

Assay [1] concerns S.D. line male rats. The assay is described as follows: Antidepressant effect, compelled swim test (Porsolt), time over which rats remain motionless. The class given is in vivo, rat. Conditions: peroral 20 mg/kg; for inhibition in vivo at 20 mg/kg: Rattus norvegicus, po, 0.5 h, 30 min before swim, read-out: Antidepressant effect, Efficacy. The method, then: An antidepression test was conducted in accordance with the method of Porsolt et al. (Europ. J. Pharmacol., 47, 379-391, 1978). Stated more specifically, 7-wk old S.D. line male rats were placed in a glass cylinder (18 cm^.phi. ×40 cm^H) for 15 min. The cylinder was filled with water (25° C.) to a depth of 15 cm. Thereafter, the rats were placed in a hot environment (32° C.) for 15 min before they were returned to the cage. Twenty-four hours later, the rats were compelled again to swim in the same cylinder for 5 min and the total time over which the rats remained motionless was measured. A test drug was administered perorally to each animal 30 min before it was compelled to swim for 5 min. Antidepressant agents are known to be capable of specifically reducing the time over which the rats would remain motionless (Psyehopharmaeol., 83, 1-16, 1984, and ibid., 94, 147-160, 1988). The antidepressant effect was calculated by the following formula: [formula]
(§4) The procedure of Test Examples 2 and 3 were repeated except that test compounds were administered perorally in a dose of 10 mg/kg.
(§5) The procedures of Test Example 2 and 3 were repeated, except that test compounds were administered perorally in a dose of 20 mg/kg to check the longevity of their antianxiety and antidepressant effects for 0.5, 2 and 4 h.

Another assay concerns the target T2, serotonin 1A receptor (Rattus norvegicus, UniProt P19327).
T2 construct: the cortex and hippocampal tissue were extracted from the brain; from tissue; host or cells: brain cortex and hippocampus of 7-week-old male S.D. rats, washed membrane homogenate
T2 sequence (P19327 1-422): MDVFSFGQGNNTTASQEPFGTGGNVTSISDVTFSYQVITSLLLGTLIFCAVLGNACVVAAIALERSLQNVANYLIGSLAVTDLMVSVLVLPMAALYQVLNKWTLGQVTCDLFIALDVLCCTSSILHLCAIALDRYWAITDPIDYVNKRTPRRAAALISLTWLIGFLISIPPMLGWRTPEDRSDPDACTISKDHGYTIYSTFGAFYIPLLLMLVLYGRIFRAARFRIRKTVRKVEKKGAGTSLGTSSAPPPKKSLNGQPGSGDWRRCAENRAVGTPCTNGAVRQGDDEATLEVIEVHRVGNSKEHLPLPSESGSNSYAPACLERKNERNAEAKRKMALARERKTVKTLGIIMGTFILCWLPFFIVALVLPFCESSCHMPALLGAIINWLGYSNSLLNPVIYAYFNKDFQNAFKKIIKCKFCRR
The assay is described as follows: Serotonin 1A receptor binding experiment (3H-8-OH-DPAT). The note with it: rat cortex and hippocampal tissue, 0.5 nM 3H-8-OH-DPAT, IC50 in M. How it is done: as §1, §2, §3
A reaction solution containing 0.5 nM (final concentration) of 3H-8-hydroxy-2-(di-n-propylamino)tetralin (8-OH-DPAT), […] and 500 μl of brain homogenate in 1.0 ml (final volume) of a buffer was incubated at 25° C. for 30 min. Thereafter, the reaction solution was filtered by rapid passage through a glass filler. The filter was washed rapidly with an ice-cooled buffer (3 ml) three times, put into a scintillation vial together with a scintillation cocktail, and left to stand overnight at 4° C. On the next day, the vial was agitated well and measurements were conducted with a scintillation counter. To determine the amount of specific binding, the amount of binding in the presence of excess unlabeled serotonin (10 μM) was subtracted from the total amount of binding. As an index for the affinity of a test compound for either receptor, the concentration at which the specific binding of ^3 H-DPAT was inhibited by 50% (IC50, M) was determined using computer software EBDA/LIGAND (Biosoft).

In assay [2] the test system is S.D. line male rats. The assay is described as follows: Antianxiety effect, water drinking under punishment (Vogel). The arrangement: Antianxiety effect / Antianxiety effect, longevity: unit not given here. Conditions: for change in vivo at 20 mg/kg: Rattus norvegicus, po, read-out: Antianxiety effect, Efficacy. The class given is in vivo, rat. How it is done: Antianxiety test was conducted in accordance with a method adapted from the method of Vogel et al. (Psychopharmacol., 21, 1-7, 1971). Stated more specifically, S.D. line male rats weighing 250-300 g were entirely kept from water for 24 h and then placed in a concrete experimental box. […] The bottom of the box was made of a stainless steel grid, from which electric shock (0.2 mA, 0.5 sec) could be applied to the limbs of rats. The test schedule was as follows: first, the rats were acclimatized to the experimental box and trained for drinking water; this was done for 3 min without electric shock. The quantity of water drunk by the rats was then measured (under non-punishment). Then, the rats were kept from drinking water for 24 h. Thereafter, the quantity of water drunk by each rat was measured (before administration of test compound) under such conditions that an electric shock was applied each time a rat drank one water drop (under punishment).Thirty minutes later, a test drug was administered perorally and after an additional 20 min, the quantity of water drunk by each rat was again measured under punishment (after administration of test compound). The quantity of water drunk by rats will decrease under punishment but it is known that the initial level can be restored by administering an antianxiety agent.
The antianxiety effect of a test compound was calculated by the following formula: [formula]
as §4, §5

Setting [3] is: read-out: -logIC50 5-HT1A (converted).

T1 sequence (P14842 whole entry): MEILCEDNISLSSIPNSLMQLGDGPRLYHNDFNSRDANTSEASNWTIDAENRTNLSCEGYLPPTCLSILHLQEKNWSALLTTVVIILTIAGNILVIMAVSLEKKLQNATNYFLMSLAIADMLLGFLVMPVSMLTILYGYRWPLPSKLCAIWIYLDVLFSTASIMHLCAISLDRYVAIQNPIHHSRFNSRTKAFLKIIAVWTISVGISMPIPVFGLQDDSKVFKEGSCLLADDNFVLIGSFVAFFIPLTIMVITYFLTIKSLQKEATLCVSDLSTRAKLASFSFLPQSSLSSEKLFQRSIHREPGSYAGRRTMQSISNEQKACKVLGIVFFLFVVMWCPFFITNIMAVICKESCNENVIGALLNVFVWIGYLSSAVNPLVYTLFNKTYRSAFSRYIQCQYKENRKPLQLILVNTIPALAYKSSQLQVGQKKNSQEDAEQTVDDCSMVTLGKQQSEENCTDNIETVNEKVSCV

Regarding `O=C(NCCNCC1COc2ccccc2O1)C12CC3CC(CC(C3)C1)C2` (stereo not drawn) [Compound 2, N-{[2-(1,4-benzodioxan-2-ylmethyl)amino]ethyl}tricyclo[3,3,1,1^3, ^7]decane-1-carboxyamide], at serotonin 2 receptor, the IC50 was 35.5 nM. Moreover, in the assay with S.D. line male rats [1], the inhibition in vivo at 20 mg/kg was 85 ± 8.5% and the “Antidepressant effect” value was “better antidepressant effects than WY-50324”. Moreover, the IC50 at serotonin 1A receptor (setting [3]) is 302 nM. In the assay with S.D. line male rats [2] (peroral 20 mg/kg), the change in vivo at 20 mg/kg is 39.3 ± 10.8% and the “Antianxiety effect” value is recorded as “almost comparable effects to WY-50324”.
Turning to `Cc1ccc2c(c1)OCC(CNCCNC(=O)C13CC4CC(CC(C4)C1)C3)O2` (stereo not drawn) [Compound 3, N-{[2-(6-methyl-1,4-benzodioxan-2ylmethyl)amino]ethyl}tricyclo[3,3,1,1^3, ^7]decane-1-carboxyamide], the IC50 on serotonin 2 receptor was 23.4 nM. Also, in the assay with S.D. line male rats [1], the inhibition in vivo at 20 mg/kg was 56.8 ± 9% and the “Antidepressant effect” value was “almost comparable effects to WY-50324”. Also, the IC50 on serotonin 1A receptor (setting [3]) was 2.51 nM. Besides, in the assay with S.D. line male rats [2] (peroral 20 mg/kg), the change in vivo at 20 mg/kg turned out to be 63.9 ± 6.8% and the “Antianxiety effect” value is reported as “comparable effects to MDL-73005”.
As to `O=C(NCCNCC1COc2ccc(Cl)cc2O1)C12CC3CC(CC(C3)C1)C2` (stereo not drawn) [Compound 4, N-{[2-(7-chloro-1,4-benzodioxan-2ylmethyl)amino]ethyl}tricyclo[3,3,1,1^3, ^7]decane-1-carboxyamide], on serotonin 2 receptor, the IC50 is 42.7 nM. For the same compound, in the assay with S.D. line male rats [1], the inhibition in vivo at 20 mg/kg stood at 51.9 ± 8.2% and the “Antidepressant effect” value is recorded as “almost comparable effects to WY-50324”. The IC50 at serotonin 1A receptor (setting [3]) was 5.13 nM. Further, in the assay on S.D. line male rats [2] (peroral 20 mg/kg), the change in vivo at 20 mg/kg came to 76.8 ± 13.7% and the “Antianxiety effect” value is given as “comparable effects to MDL-73005”.
With `COc1cccc2c1OC(CNCCNC(=O)C13CC4CC(CC(C4)C1)C3)CO2` (stereo not drawn) [Compound 5, N-{[2-(8-methoxy-1,4-benzodioxan-2ylmethyl)amino]ethyl}tricyclo[3,3,1,1^3'7]decane-1-carboxyamide], the IC50 at serotonin 2 receptor was 10 nM. Besides, in the assay with S.D. line male rats [1], the inhibition in vivo at 20 mg/kg amounted to 97.6 ± 0.9% and the “Antidepressant effect” value is “better antidepressant effects than WY-50324”. The IC50 at serotonin 1A receptor (setting [3]) is 0.347 nM. Further, in the assay with S.D. line male rats [2] (peroral 20 mg/kg), the change in vivo at 20 mg/kg stood at 40.9 ± 7.3% and the “Antianxiety effect” value is listed as “almost comparable effects to WY-50324”.
Regarding `COc1cccc2c1OCC(CNCCNC(=O)C13CC4CC(CC(C4)C1)C3)O2` (stereo not drawn) [Compound 6, N-{[2-(5-methoxy-1,4-benzodioxan-2-ylmethyl)amino]ethyl}tricyclo[3,3,1^3, ^7]decane-1-carboxyamide], the IC50 at serotonin 2 receptor was 75.9 nM. Besides, in the assay with S.D. line male rats [1], the inhibition in vivo at 20 mg/kg was 82.2 ± 6.6% and the “Antidepressant effect” value is reported as “better antidepressant effects than WY-50324”. For the same compound, on serotonin 1A receptor (setting [3]), the IC50 was 4.07 nM. In the assay with S.D. line male rats [2] (peroral 20 mg/kg), the change in vivo at 20 mg/kg is 28.7 ± 9.5%.
As for `Nc1ccc2c(c1)OC(CNCCNC(=O)C13CC4CC(CC(C4)C1)C3)CO2` (stereo not drawn) [Compound 12, N-{[2-(7-amino-1,4-benzodioxan-2-ylmethyl)amino]ethyl}tricyclo[3,3,1,1^3, ^7]decane-1-carboxyamide], at serotonin 2 receptor, the IC50 was 200 nM. In the assay with S.D. line male rats [1], the inhibition in vivo at 20 mg/kg worked out at 57 ± 5.9% and the “Antidepressant effect” value was “almost comparable effects to WY-50324”. Also, the IC50 at serotonin 1A receptor (setting [3]) was 0.398 nM. Further, the Antianxiety effect with S.D. line male rats [2] (peroral 10 mg/kg) amounted to 52.1 ± 2.5. Moreover, the “Antianxiety and antidepressant effects” value with S.D. line male rats [2] (peroral 10 mg/kg, Table 6) is on record as “superiority”.
For the compound `O=C(NCCNCC1COc2cccc(O)c2O1)C12CC3CC(CC(C3)C1)C2` (stereo not drawn) [Compound 18, N-{[2-(8-hydroxy-1,4-benzodioxan-2ylmethyl)amino]ethyl}tricyclo[^3,3,1,1^3, ^7]decane-1-carboxyamide], the IC50 at serotonin 2 receptor is 50.1 nM. In addition, in the assay on S.D. line male rats [1], the inhibition in vivo at 20 mg/kg was found to be 78.5 ± 4.5% and the “Antidepressant effect” value is recorded as “better antidepressant effects than WY-50324”. In addition, the IC50 at serotonin 1A receptor (setting [3]) is 0.158 nM. Further, in the assay with S.D. line male rats [2] (peroral 20 mg/kg), the change in vivo at 20 mg/kg worked out at 80.1 ± 6.1% and the “Antianxiety effect” value is listed as “better effects than MDL-73005”.
In the case of `O=C1C2C3CCC(C3)C2C(=O)N1CCCCN1CCN(c2ncccn2)CC1` (stereo not drawn) [SM-3997, reference compound], the IC50 at serotonin 2 receptor was 550 nM; at serotonin 1A receptor (-logIC50 5-HT1A) it was 31.6 nM. In the assay with S.D. line male rats [1], the inhibition in vivo at 20 mg/kg was -10.5 ± 10.6%. For the same compound, in the assay with S.D. line male rats [2] (peroral 20 mg/kg), the change in vivo at 20 mg/kg worked out at 48.5 ± 15.8%.
